Values of other authors in US20180250285A1 (Teva Pharmaceutical Industries Ltd., priority 2012, published 2018).

Assays:
[1] = in vivo
[2] = system: Huntington's disease patients

Structure (SMILES) | oral bioavailability [1] | tertiary endpoint UHDRS-TMS (changes in motor function) and individual items within the mMS (gait, dysarthria) ([2]; 45 mg daily or 45 mg twice daily for 6 months) | primary endpoint: effect on a specific subset of motor symptoms defined in the mMS ([2]; at 26 weeks, 45 mg daily or 45 mg twice daily) | symptomatic relief incl. improved hand movements, gait and balance (patients with HD)
CCN(C(=O)c1c(O)c2c(Cl)cccc2n(C)c1=O)c1ccccc1 [Laquinimod] | high |  |  | 
CCCN1CCC(c2cccc(S(C)(=O)=O)c2)CC1 [pridopidine, 4-[3-(methylsulfonyl)phenyl]-1-propyl-piperidine] |  | statistically significant effect of treatment | not met | significant symptomatic relief
